Assay results taken from patent US9265773B2, “Tetracyclic heterocycle compounds and methods of use thereof for the treatment of viral diseases” (priority 2011, dated 2016).

Legend:
[1] = tested on: HCV replicon genotype 1b; assay: microbe, parasite or virus in culture; type: cell-based; settings: genotype 1b replicon cells, incubated 96 hours, NS3/4A ELISA readout
[2] = tested on: HCV replicon genotype 1a; assay: microbe, parasite or virus in culture; type: cell-based; settings: genotype 1a replicon cells, incubated 96 hours, NS3/4A ELISA readout

SMILES | IC50 ([1]; Hepatitis C virus, 96 h) | IC50 ([2]; Hepatitis C virus, 96 h) | IC50 [1] | IC50 [2]
CNC(=O)c1c(-c2ccc(F)cc2)oc2cc(N(C)S(C)(=O)=O)c(-c3ccc4c(n3)-c3cc5ccc(Cl)cc5n3CO4)cc12 [Compound 15] | 9.9 nM | 9.1 nM |  | 
CNC(=O)c1c(-c2ccc(F)cc2F)oc2cc(N(C)S(C)(=O)=O)c(-c3ccc4c(n3)-c3cc5ccccc5n3CO4)cc12 [Compound 148] | 4.6 nM | 2.8 nM |  | 
CNC(=O)c1c(-c2ccc(F)cc2)oc2cc(N(C)S(C)(=O)=O)c(-c3ccc4c(c3)-c3nc5ccccn5c3CO4)cc12 [Compound 142, 5-(6H-chromeno[4′,3′:4,5]imidazo[1,2-a]pyridin-2-yl)-2-(4-fluorophenyl)-N-methyl-6-(N-methylmethylsulfonamido)benzofuran-3-carboxamide] | 4 nM | 4.1 nM |  | 
CNC(=O)c1c(-c2ccc(F)cc2)oc2cc(N(CCCF)S(C)(=O)=O)c(-c3ncc4c(n3)-c3cc5c(F)cccc5n3CO4)cc12 [Compound 195] | 4.1 nM | 2.1 nM |  | 
CN(c1cc2oc(-c3ccc(F)cc3)c(C(=O)NCCO)c2cc1-c1ccc2c(n1)-c1cc3c(F)cccc3n1CO2)S(C)(=O)=O [Compound 151, 5-(11-fluoro-6H-pyrido[2′,3′:5,6][1,3]oxazino[3,4-a]indol-2-yl)-2-(4-fluorophenyl)-N-(2-hydroxyethyl)-6-(N-methylmethylsulfonamido)benzofuran-3-carboxamide] | 5.9 nM | 4.3 nM |  | 
CNC(=O)c1c(-c2ccc(F)cc2)oc2cc(N(C)S(C)(=O)=O)c(-c3cc4c(cn3)OCn3c-4cc4cc(F)ccc43)cc12 [Compound 35] | 4.7 nM | 2.5 nM |  | 
CNC(=O)c1c(-c2ccc(F)cc2)oc2cc(N(C)S(C)(=O)=O)c(-c3nc4c(cc3OC)OCn3c-4cc4c(F)cccc43)cc12 [Compound 36] | 7.1 nM | 1.7 nM |  | 
CNC(=O)c1c(-c2ccc(F)cc2)oc2cc(N3CCOC3=O)c(-c3ccc4c(n3)-c3cc5c(F)cccc5n3CO4)cc12 [Compound 172, 5-(11-fluoro-6H-pyrido[2′,3′:5,6][1,3]oxazino[3,4-a]indol-2-yl)-2-(4-fluorophenyl)-N-methyl-6-(2-oxooxazolidin-3-yl)benzofuran-3-carboxamide] | 2.1 nM | 2.2 nM |  | 
CNC(=O)c1c(-c2ccc(F)cc2)oc2cc(N(C)S(C)(=O)=O)c(-c3cnc4c(c3)-c3cc5ccccc5n3CO4)cc12 [Compound 24] | 5.1 nM | 3 nM |  | 
CNC(=O)c1c(-c2ccc(F)cc2)oc2cc(N(Cc3ccc(B(O)O)cc3)S(C)(=O)=O)c(-c3ccc4c(n3)-c3cc5c(F)cccc5n3CO4)cc12 [Compound 205, (4-((N-(5-(11-fluoro-6H-pyrido[2′,3′:5,6][1,3]oxazino[3,4-a]indol-2-yl)-2-(4-fluorophenyl)-3-(methylcarbamoyl)benzofuran-6-yl)methylsulfonamido)methyl)phenyl) boronic acid] | 15 nM | 14 nM |  | 
CNC(=O)c1c(-c2ccc(F)cc2)oc2cc(N3CCCC3=O)c(-c3ccc4c(c3)-c3cc5c(F)cccc5n3CO4)cc12 [Compound 171, 5-(11-fluoro-6H-benzo[5,6][1,3]oxazino[3,4-a]indol-2-yl)-2-(4-fluorophenyl)-N-methyl-6-(2-oxopyrrolidin-1-yl)benzofuran-3-carboxamide] | 4.7 nM | 12 nM |  | 
CNC(=O)c1c(-c2ccc(F)cc2)oc2cc(N(C)S(C)(=O)=O)c(-c3ccc4c(c3)-c3cc5ccccc5n3CC(NCCN3CCCC3)CO4)cc12 (stereo not drawn) [Compound 84] | 16 nM | 26 nM |  | 
CNC(=O)c1c(-c2ccc(F)cc2)oc2cc(N3CCC3=O)c(-c3ccc4c(n3)-c3cc5c(F)cccc5n3CO4)cc12 [Compound 176] | 8.8 nM | 7.9 nM |  | 
CNC(=O)c1c(-c2ccc(F)cc2)oc2cc(N(C)S(C)(=O)=O)c(-c3ccc4c(c3)-c3cc5ccccc5n3CC(NCCCN(C)C)CO4)cc12 (stereo not drawn) [Compound 81] | 22 nM | 36 nM |  | 
CNC(=O)c1c(-c2ccc(F)cc2)oc2cc(N)c(-c3ccc4c(n3)-c3cc5c(F)cccc5n3CO4)cc12 [Compound 163, 6-amino-5-(11-fluoro-6H-pyrido[2′,3′:5,6][1,3]oxazino[3,4-a]indol-2-yl)-2-(4-fluorophenyl)-N-methylbenzofuran-3-carboxamide] | 2.2 nM | 1.1 nM |  | 
CCOC(=O)C1Oc2ccc(-c3cc4c(C(=O)NC)c(-c5ccc(F)cc5)oc4cc3N(C)S(C)(=O)=O)nc2-c2cc3c(F)cccc3n21 (stereo not drawn) [Compound 113] | 29 nM | 32 nM |  | 
CNC(=O)c1c(-c2ccc(F)cc2)oc2cc(N(C)S(C)(=O)=O)c(-c3ccc4c(n3)-c3cc5c(F)cccc5n3C(CN(C)C)O4)cc12 (stereo not drawn) [Compound 121, 5-(6-((dimethylamino)methyl)-11-fluoro-6H-pyrido[2′,3′:5,6][1,3]oxazino[3,4-a]indol-2-yl)-2-(4-fluorophenyl)-N-methyl-6-(N-methylmethylsulfonamido)benzofuran-3-carboxamide] | 7.5 nM | 3 nM |  | 
CNC(=O)c1c(-c2ccc(F)cc2)oc2cc(N(CCO)S(C)(=O)=O)c(-c3ccc4c(n3)-c3cc5c(F)cccc5n3CO4)cc12 [Compound 201] | 5.5 nM | 2.6 nM |  | 

SMILES | IC50 ([1]; Hepatitis C virus, 96 h) | IC50 ([2]; Hepatitis C virus, 96 h) | IC50 [1] | IC50 [2]
CNC(=O)c1c(-c2ccc(F)cc2)oc2cc(N(CCF)S(C)(=O)=O)c(-c3ccc4c(n3)-c3cc5ccccc5n3CO4)cc12 [Compound 189] | 4.4 nM | 2.9 nM |  | 
CNC(=O)c1c(-c2ccc(F)cc2)oc2cc(N(C)S(C)(=O)=O)c(-c3ccc4c(n3)-c3cc5c(F)cccc5n3C(CN)O4)cc12 (stereo not drawn) [Compound 115, 5-(6-(aminomethyl)-11-fluoro-6H-pyrido[2′,3′:5,6][1,3]oxazino[3,4-a]indol-2-yl)-2-(4-fluorophenyl)-N-methyl-6-(N-methylmethylsulfonamido)benzofuran-3-carboxamide] |  |  | 19 nM | 8.9 nM
CNC(=O)c1c(-c2ccc(F)cc2)oc2cc(N3CCCC3=O)c(-c3ccc4c(n3)-c3cc5cc(F)ccc5n3CO4)cc12 [Compound 169] | 5 nM | 14 nM |  | 
CNC(=O)c1c(-c2ccc(F)cc2)oc2cc(N(C)S(C)(=O)=O)c(-c3ccc4c(n3)-c3c(Cl)c5c(F)cccc5n3CO4)cc12 [Compound 56] | 12 nM | 13 nM |  | 
CNC(=O)c1c(-c2ccc(F)cc2)oc2cc(N(C)S(C)(=O)=O)c(-c3ccc4c(n3)-c3cc5c(C#N)nccc5n3CO4)cc12 [Compound 47] | 1.8 nM | 1.2 nM |  | 
CNC(=O)c1c(-c2ccc(F)cc2)oc2cc(N(C)S(C)(=O)=O)c(-c3ncc4c(n3)-c3cc5c(F)cccc5n3CO4)cc12 [Compound 5] | 2 nM | 1 nM |  | 
CNC(=O)c1c(-c2ccc(F)cc2)oc2cc(N(C)S(C)(=O)=O)c(-c3nc4c(cc3OC)OCn3c-4cc4ccccc43)cc12 [Compound 29] | 8 nM | 4.8 nM |  | 
CNC(=O)c1c(-c2ccc(F)cc2)oc2cc(N(C3COC3)S(C)(=O)=O)c(-c3ccc4c(n3)-c3cc5c(F)cccc5n3CO4)cc12 [Compound 199] | 5.9 nM | 4.7 nM |  | 
CNC(=O)c1c(-c2ccc(F)cc2)oc2cc(N(C)S(C)(=O)=O)c(-c3ccc4c(n3)-c3cc5c(F)cccc5n3C(C)(CO)O4)cc12 (stereo not drawn) [Compound 91] | 7.4 nM | 3.3 nM |  | 
CCOC(=O)CNCC1Oc2ccc(-c3cc4c(C(=O)NC)c(-c5ccc(F)cc5)oc4cc3N(C)S(C)(=O)=O)nc2-c2cc3c(F)cccc3n21 (stereo not drawn) [Compound 119] | 5.1 nM | 17 nM |  | 
CNC(=O)c1c(-c2ccc(F)cc2)oc2cc(N(C)S(C)(=O)=O)c(-c3ccc4c(c3)-c3cc5ccccc5n3CC(F)(F)CO4)cc12 [Compound 77, 5-(7,7-difluoro-7,8-dihydro-6H-benzo[2,3][1,5]oxazocino[5,4-a]indol-2-yl)-2-(4-fluorophenyl)-N-methyl-6-(N-methylmethylsulfonamido)benzofuran-3-carboxamide] | 11 nM | 10 nM |  | 
CNC(=O)c1c(-c2ccc(F)cc2)oc2cc(N(C)S(C)(=O)=O)c(-c3ccc4c(n3)-c3cc5c(F)cccc5n3C(c3ccccc3)O4)cc12 (stereo not drawn) [Compound 51, 5-(11-fluoro-6-phenyl-6H-pyrido[2′,3′:5,6][1,3]oxazino[3,4-a]indol-2-yl)-2-(4-fluorophenyl)-N-methyl-6-(N-methylmethylsulfonamido)benzofuran-3-carboxamide] | 33 nM | 17 nM |  | 
CNC(=O)c1c(-c2ccc(F)cc2)oc2cc(N(C)S(C)(=O)=O)c(-c3ccc4c(n3)-c3cc5cc(C#N)ccc5n3CO4)cc12 [Compound 13] | 2.2 nM | 2 nM |  | 
CNC(=O)c1c(-c2ccc(F)cc2)oc2cc(N(C)S(C)(=O)=O)c(-c3ccc4c(n3)-c3c(F)c5c(F)cccc5n3CO4)cc12 [Compound 59] | 4.2 nM | 2.5 nM |  | 
CNC(=O)c1c(-c2ccc(F)cc2)oc2cc(N(C)S(C)(=O)=O)c(-c3ncc4c(n3)-c3cc5c(F)cccc5n3CCCO4)cc12 [Compound 40] | 2.2 nM | 2 nM |  | 
CNC(=O)c1c(-c2ccc(F)cc2)oc2cc(N(C)S(C)(=O)=O)c(-c3ccc4c(n3)-c3cc5c(CO)cccc5n3CO4)cc12 [Compound 72, 2-(4-fluorophenyl)-5-(11-(hydroxymethyl)-6H-pyrido[2′,3′:5,6][1,3]oxazino[3,4-a]indol-2-yl)-N-methyl-6-(N-methylmethylsulfonamido)benzofuran-3-carboxamide] | 9 nM | 52 nM |  | 
CNC(=O)c1c(-c2ccc(F)cc2)oc2cc(N(C)S(C)(=O)=O)c(-c3cnc4c(c3)-c3nc5c(n3CO4)CCCC5)cc12 [Compound 141, 2-(4-fluorophenyl)-N-methyl-6-(N-methylmethylsulfonamido)-5-(8,9,10,11-tetrahydro-6H-benzo[4,5]imidazo[1,2-c]pyrido[3,2-e][1,3]oxazin-2-yl)benzofuran-3-carboxamide] | 2.4 nM | 2.4 nM |  | 
CNC(=O)c1c(-c2ccc(F)cc2)oc2cc(-n3cn[nH]c3=O)c(-c3ccc4c(n3)-c3cc5c(F)cccc5n3CO4)cc12 [Compound 164] | 1 nM | 1.7 nM |  | 
